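Exposure lasted 48 hours, with cells grown in 96-well plates and compounds tested at five concentrations. TGI: total growth inhibition.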
Tests used:
Assay in all cases: NCI tumour cell line growth inhibition, 48 h
KM20L2 colon = system: KM20L2 colon
RPMI-8226 leukemia = system: RPMI-8226 leukemia
SW-620 colon = system: SW-620 colon
NCI-H23 lung = system: NCI-H23 lung
UACC-257 melanoma = system: UACC-257 melanoma
HCC-2998 colon = system: HCC-2998 colon
HL-60(TB) leukemia = system: HL-60(TB) leukemia
HT29 colon = system: HT29 colon
OVCAR-5 ovarian = system: OVCAR-5 ovarian
SK-MEL-2 melanoma = system: SK-MEL-2 melanoma
SR leukemia = system: SR leukemia
786-0 renal = system: 786-0 renal
CAKI-1 renal = system: CAKI-1 renal
RXF 393 renal = system: RXF 393 renal
MALME-3M melanoma = system: MALME-3M melanoma
SF-268 CNS = system: SF-268 CNS
ACHN renal = system: ACHN renal
SK-MEL-28 melanoma = system: SK-MEL-28 melanoma
TK-10 renal = system: TK-10 renal
SNB-19 CNS = system: SNB-19 CNS
COLO 205 colon = system: COLO 205 colon
HCT-116 colon = system: HCT-116 colon
A549 NSCLC = system: A549 NSCLC
SK-OV-3 ovarian = system: SK-OV-3 ovarian
NCI-H522 lung = system: NCI-H522 lung
KM12 colon = system: KM12 colon
LOX IMVI melanoma = system: LOX IMVI melanoma
HCT-15 colon = system: HCT-15 colon
DLD-1 colon = system: DLD-1 colon
U251 CNS = system: U251 CNS
SNB-78 CNS = system: SNB-78 CNS
XF 498 CNS = system: XF 498 CNS
OVCAR-4 ovarian = system: OVCAR-4 ovarian
OVCAR-8 ovarian = system: OVCAR-8 ovarian
DMS 273 small cell lung = system: DMS 273 small cell lung
SN12C renal = system: SN12C renal
HOP-18 NSCLC = system: HOP-18 NSCLC
M19-MEL melanoma = system: M19-MEL melanoma
MOLT-4 leukemia = system: MOLT-4 leukemia
UO-31 renal = system: UO-31 renal
CCRF-CEM leukemia = system: CCRF-CEM leukemia
EKVX NSCLC = system: EKVX NSCLC
K-562 leukemia = system: K-562 leukemia
NCI-H460 lung = system: NCI-H460 lung
LXFL 529 NSCLC = system: LXFL 529 NSCLC
HOP-92 NSCLC = system: HOP-92 NSCLC
SK-MEL-5 melanoma = system: SK-MEL-5 melanoma
NCI-H226 lung = system: NCI-H226 lung
UACC-62 melanoma = system: UACC-62 melanoma
SF-295 CNS = system: SF-295 CNS
M14 melanoma = system: M14 melanoma
OVCAR-3 ovarian = system: OVCAR-3 ovarian
SNB-75 CNS = system: SNB-75 CNS
HOP-62 NSCLC = system: HOP-62 NSCLC
SF-539 CNS = system: SF-539 CNS
IGROV1 ovarian = system: IGROV1 ovarian

COc1ccc(-c2csc(=[N+]3CCCCC3)s2)cc1
TGI (KM20L2 colon): 24 µM | TGI (RPMI-8226 leukemia): 8.36 µM | TGI (SW-620 colon): > 100 µM | TGI (NCI-H23 lung): 6.58 µM | TGI (UACC-257 melanoma): 26.6 µM | TGI (HCC-2998 colon): > 100 µM | TGI (HL-60(TB) leukemia): 10.2 µM | TGI (HT29 colon): 29.9 µM | TGI (OVCAR-5 ovarian): 76.8 µM | TGI (SK-MEL-2 melanoma): 16.6 µM | TGI (SR leukemia): 11.2 µM | TGI (786-0 renal): > 100 µM | TGI (CAKI-1 renal): 8.42 µM | TGI (RXF 393 renal): 56.5 µM | TGI (MALME-3M melanoma): 13.1 µM | TGI (SF-268 CNS): 23.5 µM | TGI (ACHN renal): > 100 µM | TGI (SK-MEL-28 melanoma): 29.7 µM | TGI (TK-10 renal): > 100 µM | TGI (SNB-19 CNS): > 100 µM | TGI (COLO 205 colon): 2850 nM | TGI (HCT-116 colon): 27.8 µM | TGI (A549 NSCLC): > 100 µM | TGI (SK-OV-3 ovarian): 17.6 µM | TGI (NCI-H522 lung): 5.17 µM | TGI (KM12 colon): 18.1 µM | TGI (LOX IMVI melanoma): > 100 µM | TGI (HCT-15 colon): > 100 µM | TGI (DLD-1 colon): > 100 µM | TGI (U251 CNS): > 100 µM | TGI (SNB-78 CNS): > 100 µM | TGI (XF 498 CNS): 17.8 µM | TGI (OVCAR-4 ovarian): 36.1 µM | TGI (OVCAR-8 ovarian): > 100 µM | TGI (DMS 273 small cell lung): 13.3 µM | TGI (SN12C renal): > 100 µM | TGI (HOP-18 NSCLC): 83 µM | TGI (M19-MEL melanoma): 11.4 µM | TGI (MOLT-4 leukemia): 10.3 µM | TGI (UO-31 renal): > 100 µM | TGI (CCRF-CEM leukemia): 14.6 µM | TGI (EKVX NSCLC): > 100 µM | TGI (K-562 leukemia): 24.2 µM | TGI (NCI-H460 lung): 44.8 µM | TGI (LXFL 529 NSCLC): 26.9 µM | TGI (HOP-92 NSCLC): 7.73 µM | TGI (SK-MEL-5 melanoma): 4.76 µM | TGI (NCI-H226 lung): 9.37 µM | TGI (UACC-62 melanoma): 24.1 µM | TGI (SF-295 CNS): 8.73 µM | TGI (M14 melanoma): > 100 µM | TGI (OVCAR-3 ovarian): 31.6 µM | TGI (SNB-75 CNS): 8.22 µM | TGI (HOP-62 NSCLC): 8.06 µM | TGI (SF-539 CNS): 95.3 µM | TGI (IGROV1 ovarian): > 100 µM
